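Briefly, cells in 96-well plates were exposed to five compound concentrations for 48 h, and endpoints were estimated by linear interpolation. TGI denotes the concentration required for complete inhibition of growth.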
Key:
Assay in all cases: DTP human tumour cell line panel, 48 h
HCC-2998 colon = tested on: HCC-2998 colon
MDA-MB-231 breast = tested on: MDA-MB-231 breast
PC-3 prostate = tested on: PC-3 prostate
RPMI-8226 leukemia = tested on: RPMI-8226 leukemia
SF-295 CNS = tested on: SF-295 CNS
SK-OV-3 ovarian = tested on: SK-OV-3 ovarian
SNB-19 CNS = tested on: SNB-19 CNS
U251 CNS = tested on: U251 CNS
UACC-257 melanoma = tested on: UACC-257 melanoma
HOP-92 NSCLC = tested on: HOP-92 NSCLC

## OCCCCCCCCCCCOc1ccc(C2OCC3(CO2)COC(c2ccc(OCCCCCCCCCCCO)cc2)OC3)cc1 (stereo not drawn)
HCC-2998 colon
  TGI: > 50 µM
MDA-MB-231 breast
  TGI: > 50 µM
PC-3 prostate
  TGI: > 50 µM
RPMI-8226 leukemia
  TGI: > 50 µM
SF-295 CNS
  TGI: > 50 µM
SK-OV-3 ovarian
  TGI: > 50 µM
SNB-19 CNS
  TGI: > 50 µM
U251 CNS
  TGI: > 50 µM
UACC-257 melanoma
  TGI: > 50 µM

## CC(=O)O[C@H]1C[C@H]2[C@@H](OC(C)=O)/C=C3\C[C@](C)(C(=O)[C@H](O)C(=C1C)C2(C)C)[C@@H](O)C[C@@H]3OC(=O)[C@H](O)[C@H](c1ccccc1)N(C)C
HOP-92 NSCLC
  TGI: > 100 µM
MDA-MB-231 breast
  TGI: > 100 µM
PC-3 prostate
  TGI: > 100 µM
RPMI-8226 leukemia
  TGI: > 100 µM
SF-295 CNS
  TGI: > 100 µM
SK-OV-3 ovarian
  TGI: > 100 µM
SNB-19 CNS
  TGI: > 100 µM
U251 CNS
  TGI: > 100 µM
UACC-257 melanoma
  TGI: > 100 µM

## CS(=O)(=O)O[C@H]1CN2C[C@@H](O)[C@@H](O)[C@H]2[C@H]1CO
HCC-2998 colon
  TGI: > 100 µM
MDA-MB-231 breast
  TGI: > 100 µM
PC-3 prostate
  TGI: > 100 µM
RPMI-8226 leukemia
  TGI: > 100 µM
SF-295 CNS
  TGI: > 100 µM
SK-OV-3 ovarian
  TGI: > 100 µM
SNB-19 CNS
  TGI: > 100 µM
U251 CNS
  TGI: > 100 µM
UACC-257 melanoma
  TGI: > 100 µM

## COc1cccc2c1OC(c1ccc(Cl)cc1)C([N+](=O)[O-])=C2 (stereo not drawn)
MDA-MB-231 breast
  TGI: 13.8 µM
PC-3 prostate
  TGI: 5.3 µM
SF-295 CNS
  TGI: 13.4 µM
SK-OV-3 ovarian
  TGI: 13.6 µM
SNB-19 CNS
  TGI: 17 µM
U251 CNS
  TGI: 5.77 µM
UACC-257 melanoma
  TGI: 8.39 µM

## COc1cc(/C=C2\C[C@H]3[C@@H]4CCc5cc(O)ccc5[C@H]4CC[C@]3(C)C2=O)cc(OC)c1OC
HCC-2998 colon
  TGI: 35.9 µM
MDA-MB-231 breast
  TGI: 43.9 µM
PC-3 prostate
  TGI: 25.5 µM
RPMI-8226 leukemia
  TGI: 28.9 µM
SF-295 CNS
  TGI: 27.4 µM
SK-OV-3 ovarian
  TGI: 48.3 µM
SNB-19 CNS
  TGI: 47.1 µM
U251 CNS
  TGI: 38.1 µM
UACC-257 melanoma
  TGI: 34.1 µM

## C[N+](CCCl)(CCCl)Cc1cccc2cccc([N+](=O)[O-])c12
HOP-92 NSCLC
  TGI: > 100 µM
MDA-MB-231 breast
  TGI: > 100 µM
PC-3 prostate
  TGI: > 100 µM
RPMI-8226 leukemia
  TGI: > 100 µM
SF-295 CNS
  TGI: > 100 µM
SK-OV-3 ovarian
  TGI: > 100 µM
SNB-19 CNS
  TGI: > 100 µM
U251 CNS
  TGI: > 100 µM
UACC-257 melanoma
  TGI: > 100 µM

## Nc1ccc2c(c1)N(C(=O)c1cc3cc(NC(=O)c4cc5ccccc5o4)ccc3[nH]1)CC2CCl (stereo not drawn)
HOP-92 NSCLC
  TGI: 1.47 µM
PC-3 prostate
  TGI: 12.2 µM
RPMI-8226 leukemia
  TGI: 0.287 µM
SK-OV-3 ovarian
  TGI: > 33.4 µM
SNB-19 CNS
  TGI: 16.1 µM
U251 CNS
  TGI: 12 µM

## CCc1cc2c(oc3cc4ccccc4cc32)c(=O)[nH]1
HCC-2998 colon
  TGI: > 10 µM
HOP-92 NSCLC
  TGI: > 10 µM
MDA-MB-231 breast
  TGI: > 10 µM
PC-3 prostate
  TGI: > 10 µM
SF-295 CNS
  TGI: > 10 µM
SNB-19 CNS
  TGI: > 10 µM
UACC-257 melanoma
  TGI: > 10 µM

## O=C(C=P(c1ccccc1)(c1ccccc1)c1ccccc1)c1ccc(-c2cccc([N+](=O)[O-])c2)s1
HCC-2998 colon
  TGI: > 100 µM
HOP-92 NSCLC
  TGI: 81.4 µM
MDA-MB-231 breast
  TGI: > 100 µM
PC-3 prostate
  TGI: > 100 µM
RPMI-8226 leukemia
  TGI: 54.9 µM
SF-295 CNS
  TGI: > 100 µM
SK-OV-3 ovarian
  TGI: > 100 µM
SNB-19 CNS
  TGI: > 100 µM
U251 CNS
  TGI: > 100 µM

## O=C1NC(=O)C(c2c[nH]c3ccccc23)=C1c1cnc[nH]1
HOP-92 NSCLC
  TGI: > 100 µM
MDA-MB-231 breast
  TGI: > 100 µM
PC-3 prostate
  TGI: > 100 µM
RPMI-8226 leukemia
  TGI: > 100 µM
SF-295 CNS
  TGI: > 100 µM
SK-OV-3 ovarian
  TGI: > 100 µM
SNB-19 CNS
  TGI: > 100 µM
U251 CNS
  TGI: > 100 µM
UACC-257 melanoma
  TGI: > 100 µM

## COc1ccc(N2C(=O)/C(=C(\C)c3cc4ccccc4oc3=O)N=C2c2cc([N+](=O)[O-])ccc2Cl)cc1
HCC-2998 colon
  TGI: > 100 µM
RPMI-8226 leukemia
  TGI: > 100 µM
SF-295 CNS
  TGI: > 100 µM
SK-OV-3 ovarian
  TGI: > 100 µM
SNB-19 CNS
  TGI: > 100 µM
U251 CNS
  TGI: > 100 µM
UACC-257 melanoma
  TGI: > 100 µM

## CCCCc1c(N(C)C)c(OC(C)=O)c(-c2cn(C)c3ccccc23)oc1=O
PC-3 prostate
  TGI: 50.9 µM
SF-295 CNS
  TGI: > 100 µM
SK-OV-3 ovarian
  TGI: > 100 µM
SNB-19 CNS
  TGI: 90.3 µM
U251 CNS
  TGI: 64 µM
UACC-257 melanoma
  TGI: 59.8 µM

## CC(C)C(=O)[C@@]1(C)SC[C@H]2CCN=C21
HCC-2998 colon
  TGI: > 100 µM
HOP-92 NSCLC
  TGI: 75 µM
RPMI-8226 leukemia
  TGI: > 100 µM
SF-295 CNS
  TGI: > 100 µM
SK-OV-3 ovarian
  TGI: > 100 µM
SNB-19 CNS
  TGI: > 100 µM
UACC-257 melanoma
  TGI: > 100 µM

## CN(CC(=O)O)c1ncc2c(n1)-c1ccccc1SC2
HOP-92 NSCLC
  TGI: > 100 µM
MDA-MB-231 breast
  TGI: > 100 µM
PC-3 prostate
  TGI: > 100 µM
RPMI-8226 leukemia
  TGI: > 100 µM
SF-295 CNS
  TGI: > 100 µM
SNB-19 CNS
  TGI: > 100 µM
U251 CNS
  TGI: > 100 µM
UACC-257 melanoma
  TGI: > 100 µM

## CCN(CC)CC1CCCCCCCCCCC1=O (stereo not drawn)
HCC-2998 colon
  TGI: > 100 µM
RPMI-8226 leukemia
  TGI: > 100 µM
SF-295 CNS
  TGI: > 100 µM
SNB-19 CNS
  TGI: > 100 µM
U251 CNS
  TGI: > 100 µM
UACC-257 melanoma
  TGI: > 100 µM

## Cc1cc(C)n(C(=C(C(Cl)=C(Cl)Cl)[N+](=O)[O-])n2nc(C)cc2C)n1
HCC-2998 colon
  TGI: 12.5 µM
HOP-92 NSCLC
  TGI: 6.78 µM
MDA-MB-231 breast
  TGI: 27.8 µM
PC-3 prostate
  TGI: 13.6 µM
SF-295 CNS
  TGI: 14.8 µM
SK-OV-3 ovarian
  TGI: 8.69 µM
SNB-19 CNS
  TGI: 16.2 µM
U251 CNS
  TGI: 11.7 µM
UACC-257 melanoma
  TGI: 11.5 µM

## CC(C)(C)OC(=O)N1CCc2[nH][nH]c(=O)c2C1
HOP-92 NSCLC
  TGI: > 100 µM
MDA-MB-231 breast
  TGI: > 100 µM
PC-3 prostate
  TGI: > 100 µM
RPMI-8226 leukemia
  TGI: > 100 µM
SF-295 CNS
  TGI: > 100 µM
SK-OV-3 ovarian
  TGI: > 100 µM
SNB-19 CNS
  TGI: > 100 µM
U251 CNS
  TGI: > 100 µM
UACC-257 melanoma
  TGI: > 100 µM

## CC1(C)CC(=O)c2[nH]c3ccccc3c2CC(=O)NCCc2cn1cn2
HCC-2998 colon
  TGI: > 100 µM
HOP-92 NSCLC
  TGI: > 100 µM
MDA-MB-231 breast
  TGI: > 100 µM
PC-3 prostate
  TGI: > 100 µM
SF-295 CNS
  TGI: > 100 µM
SK-OV-3 ovarian
  TGI: > 100 µM
SNB-19 CNS
  TGI: > 100 µM
U251 CNS
  TGI: > 100 µM
UACC-257 melanoma
  TGI: > 100 µM

## COC(=O)c1ccc(C(=O)NC(Cc2ccc(Oc3cc(CC(NC(=O)c4ccccc4C(=O)OC)C(=O)OC)ccc3OC)cc2)C(=O)OC)cc1 (stereo not drawn)
HCC-2998 colon
  TGI: > 100 µM
HOP-92 NSCLC
  TGI: > 100 µM
PC-3 prostate
  TGI: > 100 µM
RPMI-8226 leukemia
  TGI: > 100 µM
SF-295 CNS
  TGI: > 100 µM
SK-OV-3 ovarian
  TGI: > 100 µM
SNB-19 CNS
  TGI: > 100 µM
UACC-257 melanoma
  TGI: > 100 µM

## O=c1[nH]c2c(nc1NC13CC4CC(CC(C4)C1)C3)c(=O)oc1ccccc12
HCC-2998 colon
  TGI: > 100 µM
HOP-92 NSCLC
  TGI: > 100 µM
RPMI-8226 leukemia
  TGI: > 100 µM
SK-OV-3 ovarian
  TGI: > 100 µM
SNB-19 CNS
  TGI: > 100 µM
U251 CNS
  TGI: 33.1 µM
UACC-257 melanoma
  TGI: > 100 µM

## CCCCC1=NNC(=O)C1
HCC-2998 colon
  TGI: > 100 µM
HOP-92 NSCLC
  TGI: > 100 µM
MDA-MB-231 breast
  TGI: > 100 µM
PC-3 prostate
  TGI: > 100 µM
RPMI-8226 leukemia
  TGI: > 100 µM
SF-295 CNS
  TGI: > 100 µM
SK-OV-3 ovarian
  TGI: > 100 µM
U251 CNS
  TGI: > 100 µM
UACC-257 melanoma
  TGI: > 100 µM

## COCC1OC(Sc2ccccc2)C(O)C(OC)C1OC (stereo not drawn)
HCC-2998 colon
  TGI: > 100 µM
MDA-MB-231 breast
  TGI: > 100 µM
PC-3 prostate
  TGI: > 100 µM
SF-295 CNS
  TGI: > 100 µM
SK-OV-3 ovarian
  TGI: > 100 µM
SNB-19 CNS
  TGI: > 100 µM
U251 CNS
  TGI: > 100 µM
UACC-257 melanoma
  TGI: > 100 µM

## CC(=O)c1ccc(NCc2cc(O)ccc2O)cc1
HOP-92 NSCLC
  TGI: 39.2 µM
MDA-MB-231 breast
  TGI: 73.8 µM
PC-3 prostate
  TGI: 41.3 µM
RPMI-8226 leukemia
  TGI: > 100 µM
SF-295 CNS
  TGI: 34.6 µM
SK-OV-3 ovarian
  TGI: 59.8 µM
SNB-19 CNS
  TGI: > 100 µM
U251 CNS
  TGI: 54.5 µM
UACC-257 melanoma
  TGI: 33.9 µM

## CC(=O)Nc1ccc(C(=O)NN2C(=O)CSC2c2ccc([N+](=O)[O-])cc2)cc1 (stereo not drawn)
HCC-2998 colon
  TGI: > 100 µM
HOP-92 NSCLC
  TGI: > 100 µM
MDA-MB-231 breast
  TGI: > 100 µM
RPMI-8226 leukemia
  TGI: > 100 µM
SF-295 CNS
  TGI: > 100 µM
SK-OV-3 ovarian
  TGI: > 100 µM
SNB-19 CNS
  TGI: > 100 µM
U251 CNS
  TGI: > 100 µM
UACC-257 melanoma
  TGI: > 100 µM

## CCN(CC)CCC(=O)/C=C/c1ccccc1
HCC-2998 colon
  TGI: 34.8 µM
HOP-92 NSCLC
  TGI: 28.7 µM
MDA-MB-231 breast
  TGI: 28.9 µM
PC-3 prostate
  TGI: 27.3 µM
RPMI-8226 leukemia
  TGI: 7.5 µM
SF-295 CNS
  TGI: 40.1 µM
SNB-19 CNS
  TGI: 37.1 µM
U251 CNS
  TGI: 25.6 µM
UACC-257 melanoma
  TGI: 31.6 µM

— PubChem BioAssay (NCI)
